Assay results: patent publication US20090137569A1, “Administration of (3S)-N-hydroxy-4-(sulfonyl)-2,2-dimethyl-3-thiomorpholine carboxamide or (S)-N_hydroxy-4-[4_(but-2-ynyloxy)phenylsulfonyl]-2,2-dimethyl thimomorpholine-3-carboxamide for preventing and/or treating inflammatory skin pathologies/afflictions” (GALDERMA RESEARCH & DEVELOPMENT, priority 2007, published 2009)

Test system: TPA-induced mouse ear edema
Test: TPA-induced mouse ear edema test, single topical application
Assay type: in vivo
Conditions: Balb/c mice
Method: Evaluation of the Anti-Inflammatory Activity of Apratastat after a Single Topical Application in the TPA-Induced Mouse Ear Edema Test on Balb/c Mice (TPA=Tetradecanoylphorbol Acetate)
Edema is induced by single application of 20 μl of TPA dissolved in acetone at 0.01%.
The test compound is diluted in a TPA solution and applied at a concentration of 0.1%, 0.3% to 1%.
A positive control, betamethasone valerate (VdB), is also tested.
The thickness of the mouse ear is measured at T+6 h.

| Compound | reduction in the edema of the ear (single topical application at 0.01%, diluted in TPA solution, ear thickness at T+6 h) [%] | reduction of the edema of the ear induced by TPA (single topical application at 0.1% in TPA solution, ear thickness at T+6 h, NS) [%] | reduction of the edema of the ear induced by TPA (single topical application at 0.3% in TPA solution, ear thickness at T+6 h, **) [%] | reduction of the edema of the ear induced by TPA (single topical application at 1% in TPA solution, ear thickness at T+6 h, **) [%] | anti-inflammatory effect (in words) (single topical application, 0.1% to 1%, TPA-induced ear edema) |
| --- | --- | --- | --- | --- | --- |
| CCCCC(=O)O[C@]1(C(=O)CO)[C@@H](C)C[C@H]2[C@@H]3CCC4=CC(=O)C=C[C@]4(C)[C@@]3(F)[C@@H](O)C[C@@]21C [betamethasone valerate, reference compound] | 93 |  |  |  |  |
| CC1(C)SCCN(S(=O)(=O)c2ccc(OCC#CCO)cc2)[C@H]1C(=O)NO [Apratastat, (3S)—N-hydroxy-4-({4-[(4-hydroxy-2-butynyl)oxy]phenyl}sulfonyl)-2,2-dimethyl-3-thiomorpholinecarboxamide] |  | 25 | 47 | 49 | dose-dependent anti-inflammatory effect |
